Source: patent publication US6552014B2, “Methods of inhibiting platelet activation with selective serotonin reuptake inhibitors” (HeartDrug Research, L.L.C., priority 1999, dated 2003)

Experiments:
Experiment in all cases: Flow cytometry of platelet antigen expression, platelet rich plasma
Format in all cases: cell-based, human
CPIa-IIa = details: for CPIa-IIa (mean) log fluorescence intensity / CPIa-IIa (peak) log fluorescence intensity: PRP
From the text: (§1) For ex vivo assessment of the SSRIs effect on a PAM, a level of a PAM can be assessed by flow cytometry by first obtaining a sample that comprises platelets and then contacting the sample with a platelet activation agonist, such as phorbol myristate acetate (PMA), ADP (adenosine diphosphate), thrombin, collagen, and/or TRAP (thrombin receptor activating peptide), under conditions suitable for activation of platelets in the sample. The sample is in contact with the agonist preferably for a period of time effective to maximally activate the platelets. […] NDMS at 31.1, 64.1 or 143 ng./ml). Then one contacts or stains the samples with a composition that comprises an anti-PAM antibody e.g., having a fluorescent label, preferably in an amount in excess of that required to bind the PAM expressed on the platelets, under conditions suitable for the formation of labeled complexes between the anti-PAM antibody and activated platelets. Then the formation of the complex in the sample is determined (detected or measured). […] The blood-ACD mixture was centrifuged at 1000 r.p.m. for 10 minutes at room temperature. […] The PRP was then centrifuged at 3000 r.p.m. for 10 minutes. […] All cells were then divided into ten plastic capped tubes. Nine portions of washed platelets were incubated with 5 μfluorescein isothiocyanate (FITC)-conjugated antibodies in the dark at +4 °C for 30 minutes, and one part remained unstained and served as a negative control. Surface antigen expression was measured with monoclonal murine anti-human antibodies: CD9 (p24); CD41a (IIb/IIIa, aIIIbb3); CD42b (Ib); CD61(IIIa) (DAKO Corporation, Carpinteria Calif.); CD49b (VLA-2, or a2b1); CD62p (P-selectin); CD31 (PECAM-1); […] The instrument was calibrated daily with fluorescence beads (CaliBRITE; Becton Dickinson) and measured FITC-conjugated fluorescence intensity. All parameters were obtained using four decade logarithmic amplification. The data was collected and stored in list mode, and then analyzed using CELLQuest® (version 1.2.2) software. Procedures are described in detail in (Gurbel, P. […] Serebruany, V. […] Gurbel, P. A. et al., Coron Artery Dis 9: 451-456 (1998) and Serebruany, V. L. et al., Arterioscl Thromb Vasc Biol 19: 153-158 (1999)). The data in table 1 was obtained using the methods described herein, and in particular, in Examples 1 and 2. The levels of various PAMs were assess from samples of human volunteers.

CD9 = details: for CD9 (mean) log fluorescence intensity / CD9 (peak) log fluorescence intensity: PRP
From the text: as §1

GP IIb/IIIa = details: for GP IIb/IIIa (mean) log fluorescence intensity / GP IIb/IIIa (peak) log fluorescence intensity: PRP
From the text: as §1

GP IIIa = details: PRP
From the text: as §1

PECAM-1 = details: for PECAM-1 (mean) log fluorescence intensity / PECAM-1 (peak) log fluorescence intensity: PRP
From the text: as §1

GP Ib = details: for GP Ib (mean) log fluorescence intensity / GP Ib (peak) log fluorescence intensity: PRP
From the text: as §1

GP IIb = details: PRP
From the text: as §1

[1] = healthy volunteers, sertraline 18.1 ng/ml
[2] = healthy volunteers, sertraline 44.7 ng/ml
[3] = healthy volunteers, sertraline 85.3 ng/ml
[4] = post-angioplasty patient on aspirin, sertraline 18.1 ng/ml
[5] = post-angioplasty patient on aspirin, sertraline 44.7 ng/ml
[6] = post-angioplasty patient on aspirin, sertraline 85.3 ng/ml
[7] = plasma concentration 85.3 ng/ml, equivalent to 200 mg/daily

CN[C@H]1CC[C@@H](c2ccc(Cl)c(Cl)c2)c2ccccc21 [sertraline]
CPIa-IIa (mean) log fluorescence intensity (CPIa-IIa; [1]): 51
CPIa-IIa (peak) log fluorescence intensity (CPIa-IIa; [1]): 47
CPIa-IIa (mean) log fluorescence intensity (CPIa-IIa; [2]): 49
CPIa-IIa (peak) log fluorescence intensity (CPIa-IIa; [2]): 37
CPIa-IIa (mean) log fluorescence intensity (CPIa-IIa; [3]): 35
CPIa-IIa (peak) log fluorescence intensity (CPIa-IIa; [3]): 30
CPIa-IIa (mean) log fluorescence intensity (CPIa-IIa; [4]): 63
CPIa-IIa (peak) log fluorescence intensity (CPIa-IIa; [4]): 55
CPIa-IIa (mean) log fluorescence intensity (CPIa-IIa; [5]): 70
CPIa-IIa (peak) log fluorescence intensity (CPIa-IIa; [5]): 60
CPIa-IIa (mean) log fluorescence intensity (CPIa-IIa; [6]): 67
CPIa-IIa (peak) log fluorescence intensity (CPIa-IIa; [6]): 60
surface expression of very late antigen-2 (VLA-2, or GPIb-IIa), in words (CPIa-IIa; [7]): diminished surface expression
CD9 (mean) log fluorescence intensity (CD9; [1]): 948
CD9 (peak) log fluorescence intensity (CD9; [1]): 938
CD9 (mean) log fluorescence intensity (CD9; [2]): 905
CD9 (peak) log fluorescence intensity (CD9; [2]): 777
CD9 (mean) log fluorescence intensity (CD9; [3]): 742
CD9 (peak) log fluorescence intensity (CD9; [3]): 716
CD9 (mean) log fluorescence intensity (CD9; [4]): 949
CD9 (peak) log fluorescence intensity (CD9; [4]): 1027
CD9 (mean) log fluorescence intensity (CD9; [5]): 1015
CD9 (peak) log fluorescence intensity (CD9; [5]): 850
CD9 (mean) log fluorescence intensity (CD9; [6]): 984
CD9 (peak) log fluorescence intensity (CD9; [6]): 964
surface expression of CD9 (p24), in words (CD9; [7]): diminished surface expression
GP IIb/IIIa expression, flow cytometric graph (FIG. 9), in words (GP IIb/IIIa; 44.7, 85.3 ng/mL of sertraline): dose dependent decrease in the expression
GP IIb/IIIa (mean) log fluorescence intensity (GP IIb/IIIa; [1]): 1038
GP IIb/IIIa (peak) log fluorescence intensity (GP IIb/IIIa; [1]): 991
GP IIb/IIIa (mean) log fluorescence intensity (GP IIb/IIIa; [2]): 748
GP IIb/IIIa (peak) log fluorescence intensity (GP IIb/IIIa; [2]): 518
GP IIb/IIIa (mean) log fluorescence intensity (GP IIb/IIIa; [3]): 533
GP IIb/IIIa (peak) log fluorescence intensity (GP IIb/IIIa; [3]): 421
GP IIb/IIIa (mean) log fluorescence intensity (GP IIb/IIIa; [4]): 911
GP IIb/IIIa (peak) log fluorescence intensity (GP IIb/IIIa; [4]): 679
GP IIb/IIIa (mean) log fluorescence intensity (GP IIb/IIIa; [5]): 962
GP IIb/IIIa (peak) log fluorescence intensity (GP IIb/IIIa; [5]): 798
GP IIb/IIIa (mean) log fluorescence intensity (GP IIb/IIIa; [6]): 1035
GP IIb/IIIa (peak) log fluorescence intensity (GP IIb/IIIa; [6]): 922
surface expression of glycoprotein IIb/IIIa complex (GP IIb/IIIa), in words (GP IIb/IIIa; [7]): diminished surface expression
GP IIIa (mean) log fluorescence intensity (GP IIIa; [1]): 1389
GP IIIa (peak) log fluorescence intensity (GP IIIa; [1]): 1197
GP IIIa (mean) log fluorescence intensity (GP IIIa; [2]): 1197
GP IIIa (peak) log fluorescence intensity (GP IIIa; [2]): 1084
GP IIIa (mean) log fluorescence intensity (GP IIIa; [3]): 816
GP IIIa (peak) log fluorescence intensity (GP IIIa; [3]): 704
GP IIIa (mean) log fluorescence intensity (GP IIIa; [4]): 1247
GP IIIa (peak) log fluorescence intensity (GP IIIa; [4]): 1114
GP IIIa (mean) log fluorescence intensity (GP IIIa; [5]): 1404
GP IIIa (peak) log fluorescence intensity (GP IIIa; [5]): 1370
GP IIIa (mean) log fluorescence intensity (GP IIIa; [6]): 1321
GP IIIa (peak) log fluorescence intensity (GP IIIa; [6]): 1310
PECAM-1 expression, flow cytometric graph (FIG. 10), in words (PECAM-1; 44.7, 85.3 ng/mL of sertraline): dose dependent decrease in the expression
PECAM-1 (mean) log fluorescence intensity (PECAM-1; [1]): 117
PECAM-1 (peak) log fluorescence intensity (PECAM-1; [1]): 88
PECAM-1 (mean) log fluorescence intensity (PECAM-1; [2]): 104
PECAM-1 (peak) log fluorescence intensity (PECAM-1; [2]): 71
PECAM-1 (mean) log fluorescence intensity (PECAM-1; [3]): 84
PECAM-1 (peak) log fluorescence intensity (PECAM-1; [3]): 66
PECAM-1 (mean) log fluorescence intensity (PECAM-1; [4]): 94
PECAM-1 (peak) log fluorescence intensity (PECAM-1; [4]): 76
PECAM-1 (mean) log fluorescence intensity (PECAM-1; [5]): 99
PECAM-1 (peak) log fluorescence intensity (PECAM-1; [5]): 98
PECAM-1 (mean) log fluorescence intensity (PECAM-1; [6]): 97
PECAM-1 (peak) log fluorescence intensity (PECAM-1; [6]): 93
surface expression of PECAM-1, in words (PECAM-1; [7]): diminished surface expression
GPIb expression, flow cytometric graph (FIG. 8), in words (GP Ib; 18.1, 44.7 or 85.5 ng/mL of sertraline): dose dependent decrease in the expression
GP Ib (mean) log fluorescence intensity (GP Ib; [1]): 139
GP Ib (peak) log fluorescence intensity (GP Ib; [1]): 125
GP Ib (mean) log fluorescence intensity (GP Ib; [2]): 97
GP Ib (peak) log fluorescence intensity (GP Ib; [2]): 74
GP Ib (mean) log fluorescence intensity (GP Ib; [3]): 65
GP Ib (peak) log fluorescence intensity (GP Ib; [3]): 67
GP Ib (mean) log fluorescence intensity (GP Ib; [4]): 324
GP Ib (peak) log fluorescence intensity (GP Ib; [4]): 305
GP Ib (mean) log fluorescence intensity (GP Ib; [5]): 220
GP Ib (peak) log fluorescence intensity (GP Ib; [5]): 257
GP Ib (mean) log fluorescence intensity (GP Ib; [6]): 182
GP Ib (peak) log fluorescence intensity (GP Ib; [6]): 186
surface expression of GPIb, in words (GP Ib; [7]): diminished surface expression
GP IIb (mean) log fluorescence intensity (GP IIb; [1]): 31
GP IIb (peak) log fluorescence intensity (GP IIb; [1]): 26
GP IIb (mean) log fluorescence intensity (GP IIb; [2]): 31
GP IIb (peak) log fluorescence intensity (GP IIb; [2]): 35
GP IIb (mean) log fluorescence intensity (GP IIb; [3]): 30
GP IIb (peak) log fluorescence intensity (GP IIb; [3]): 22
GP IIb (mean) log fluorescence intensity (GP IIb; [4]): 30
GP IIb (peak) log fluorescence intensity (GP IIb; [4]): 29
GP IIb (mean) log fluorescence intensity (GP IIb; [5]): 27
GP IIb (peak) log fluorescence intensity (GP IIb; [5]): 31
GP IIb (mean) log fluorescence intensity (GP IIb; [6]): 37
GP IIb (peak) log fluorescence intensity (GP IIb; [6]): 34
